Patent US7678884B2, “Biologically active peptide and agent containing the same” (Seikagaku Corporation, priority 2003, dated 2010)
Ends that are not written are not given here.

Columns and labels:
[1] = test system: MC3T3 cells; test: Cell growth of MC3T3 cells (cell number); format: cell-based, mouse; conditions: αMEM containing 2% FBS; on Day 6; versus control (FIG. 3)
Procedure: (§1) As mouse-derived osteoblasts, cells of the MC3T3 cell strain or ST2 cell strain (purchased from Riken Cell Bank) were used. • (iii) Rat Femur Bone Marrow-derived Mesenchymal Stem Cells (BMMSC)
The PDL cells prepared in (1) were inoculated on a 24-well culture plate (FALCON) at a ratio of 5×10^3 cells/well. After the inoculation, the cells were cultured in DMEM containing 10% FBS for 1 day. On Day 0, next day of the inoculation, the peptide (a) prepared above was added to a culture medium (DMEM containing 2% FBS) at various concentrations. On Days 4 and 6, the cells were separated and dispersed by using PBS containing 0.08% trypsin and 0.04% ethylenediaminetetraacetic acid (EDTA), and cell number was counted by using a Coulter counter (COULTER Z1, Coulter Electronics).
Further, the peptides (a) and (b) were similarly examined for cell growth promoting effect on the MC3T3 cells. […] The symbol “cont” in FIG. 3 indicates the results for the cells cultured in αMEM containing 2% FBS alone, “B” indicates the results for the cells cultured in the medium added only with BMP2 (bone morphogenetic protein 2, Yamanouchi Pharmaceutical Co., Ltd.), “HN” indicates the results for the cells cultured in the medium added only with the peptide (b), and “PN” indicates the results for the cells cultured in the medium added with only the peptide (a). […]

[2] = test system: Rat femur bone marrow-derived mesenchymal stem cells (BMMSC); test: Cell differentiation of BMMSC cells (ALP activity); format: cell-based; conditions: for cell differentiation promoting effect on BMSSC cells relative to BMP2: at confluent state (FIG. 8), comparison with BMP2; for cell differentiation promoting effect (ALP activity) on BMSSC cells: at confluent state, αMEM containing 2% FBS (FIG. 8)
Text: Rat femur bone marrow-derived mesenchymal stem cells (BMMSC) were used. The cell strain of the cells was obtained according to the method of Maniatopoulos et al. (Maniatopoulos C, Sodek J and Melcher A H, Bone formation in vitro by stromal cells obtained from bone marrow of young adult rats, Cell Tissue Res., 254: 317-330, 1988). The femur was aseptically extracted, and surrounding soft tissue was removed as far as possible. The mesiodistal epiphysis of the femur was cut off, and the femur marrow tissue in 5 ml of 15S-containing minimum essential medium alpha medium (αMEM, GIBCO) was injected into 10 ml of the same culture broth by using a syringe. The obtained tissue was cultured in the 15S-containing αMEM at 37° C., and the 3rd to 5th generation cells were used for experiments. • (iv) Mouse-derived Cementoblasts
(§2) As an index of cell differentiation, alkaline phosphatase (ALP) activity of cells was determined. Cells were inoculated in a 24-well culture plate at a ratio of 5×10^3 cells/well, added with the peptide (a) at various concentrations and cultured in DMEM or αMEM containing 2% FBS. One week after the time point when the cells reached a confluent state, ALP activity was determined by the following enzymochemical method (Bessey-Lowry method, Bessey O A, Lowry O H and Brock M J, A method for the rapid determination of alkaline phosphatase with five cubic millimeter of serum, J. Biol. Chem., 164:321-329, 1946).
(§3) The cultured cells were washed with PBS and then disrupted in 10 mM Tris-HCl buffer (pH 7.4, 500 μl) for 40 seconds by using an ultrasonic homogenizer (Handy Sonic model UR-20P, Tomy Seiko) and stirred. Then, 25 μl of this sample liquid was added to 125 μl of ALP buffer (0.1 M carbonate buffer, pH 9.8, 6.7 mM p-nitrophenyl phosphate, 2 mM MgCl2) and incubated at 37° C. for 30 minutes. The reaction was terminated by addition of 125 μl of 0.2 N NaOH, and absorbance was measured at 405 nm by using a microplate reader (Model 550, Bio-Rad Laboratories).
Further, the peptides (a) and (b) and BMP2 were similarly examined by using the ST2 cells and BMMSC cells. The symbol “cont” in the figures indicates the results for the cells cultured in αMEM containing 2% FBS alone, “B” indicates the results for the cells cultured in the medium added only with BMP2, “HN” indicates the results for the cells cultured in the medium added only with the peptide (b), and “PN” indicates the results for the cells cultured in the medium added only with the peptide (a). In the figures, the unit of numerical values shown after “B,” “HN” and “PN” is “ng/ml.”

[3] = test system: MC3T3 cells; test: Cell differentiation of MC3T3 cells (ALP activity); format: cell-based, mouse; conditions: for cell differentiation promoting effect (ALP activity) on MC3T3 cells: at confluent state and one week after (FIG. 9, FIG. 10)
Procedure: as §1, §2, §3
Further, the peptides (a) and (b) were similarly examined by using the MC3T3 cells. ALP activity determined when the cells reached a confluent state is shown in FIG. 9, and ALP activity determined one week after the confluent state was attained is shown in FIG. 10. The symbol “cont” in the figures indicates the results for the cells cultured in αMEM containing 2% FBS alone, “PN” indicates the results for the cells cultured in the medium added only with the peptide (a), and “HN” indicates the results for the cells cultured in the medium added only with the peptide (b). Further, “ng” in the figures represents “ng/ml.” […]

[4] = test system: PDL cells; test: Calcification product forming ability of PDL cells (Dahl's calcium staining, alizarin red S); format: cell-based, human; conditions: peptide at various concentrations, 10 mM sodium β-glycerophosphate, three weeks after confluent state
Procedure: The following experiment was performed to examine effect of the peptide on calcification product forming ability of cells.
To assess calcification ability of cells, Dahl's calcium staining was performed. The PDL cells were inoculated on a 24-well culture plate at a ratio of 5×10^3 cells/well, and cultured in 2S-containing DMEM added with the peptide (a) or (c) at various concentrations and adjusted by addition of 10 mM sodium β-glycerophosphate. Three weeks after the cells reached a confluent state, the cells were washed with PBS, fixed with neutrally buffered formalin and stained with alizarin red S (Wako Pure Chemical Industries).

[5] = test system: MC3T3 cells; test: Calcification product forming ability of MC3T3 cells (Dahl's calcium staining); format: cell-based, mouse; conditions: two weeks after confluent state
Procedure: To assess calcification ability of cells, Dahl's calcium staining was performed. The PDL cells were inoculated on a 24-well culture plate at a ratio of 5×10^3 cells/well, and cultured in 2S-containing DMEM added with the peptide (a) or (c) at various concentrations and adjusted by addition of 10 mM sodium β-glycerophosphate. […]
Further, the peptide (a), BMP2 and TGFβ were similarly examined by using the MC3T3 cells.

Sequence	MC3T3 cell number (cell growth promoting effect) [1]	cell differentiation promoting effect on BMSSC cells relative to BMP2 [2]	cell differentiation promoting effect (ALP activity) on BMSSC cells [2]	cell differentiation promoting effect (ALP activity) on MC3T3 cells [3]	cell differentiation promoting effect (ALP activity) on the MC3T3 cell strain ([3]; final concentration of 100 ng/ml, versus control (FIG. 12))	calcification ability of the PDL cells [4]	cell differentiation promoting effect (calcification) on MC3T3 cells [5]	cell differentiation promoting effect (calcification) on MC3T3 cells relative to BMP2 ([5]; comparison with BMP2)
VPFFPQQSGTPGMASL [Peptide (b), peptide designed on the portion of human-derived sheathlin protein corresponding to (a)]	significantly increased	comparable to or higher than that of BMP2	significant cell differentiation promoting effect	significant cell differentiation promoting effect	high cell differentiation promoting effect	–	–	–
VPAFPRQPGTPGVASL [Peptide (a)]	significantly increased	comparable to or higher than that of BMP2	significant cell differentiation promoting effect	significant cell differentiation promoting effect	–	significantly increased	significant cell differentiation promoting effect	comparable to or higher than that of BMP2
